The values that follow come from patent US7053070B2, “Pyrido[2,3-d]pyrimidine-2,7-diamine kinase inhibitors” (Warner-Lambert Company, priority 2000, dated 2006).

Counter-ions that a name gives are not always drawn. A value given as a limit tells only on which side of the number the result lay.

In series [1] the target is cdk2/cyclinE (Homo sapiens, UniProt P24941). Put plainly: Cyclin dependent kinase 2 assay (cdk2/cyclinE), 32P incorporation, filter plate. In kind it is biochemical. To be noted: retinoblastoma substrate, 12 mM ATP, 25° C., 15 minutes; read-out: Inhibition of Cdks: IC50 Cdk2/E. The method, then: (§1) Cyclin Dependent Kinase 1 and 2 Assays (cdk1/cyclinB, cdk2/cyclinA, cdk2/cyclinE)
(§2) Enzyme assays for IC50 determinations and kinetic evaluation are performed in a 96-well filter plate (Millipore MADVN6550) in a total volume of 0.1 mL of 20 mM TRIS (tris[hydroxymethyl]aminomethane), at pH 7.4, 50 mM NaCl, 1 mM dithiothreitol, 10 mM MgCl2, […] containing 0.25 μCi of [^32P]ATP, 20 ng of enzyme (either cdk1/B, cdk2/A, or cdk2E), 1 μg retinoblastoma and appropriate dilutions of the particular invention compound. All components except the ATP are added to the wells, and the plate is placed on a plate mixer for 2 minutes. The reaction is begun by addition of [^32P]ATP, and the plate is incubated at 25° C. for 15 minutes. The reaction is terminated by addition of 0.1 mL of 20% TCA. The plate is kept at 4° C. for at least 1 hour to allow the substrate to precipitate. The wells are then washed 5 times with 0.2 mL of 10% TCA and ^32P incorporation determined with a beta plate counter (Wallac Inc., Gaithersburg, Md.).

Series [2] concerns the target cdk4/cyclinD (Homo sapiens, UniProt P11802). Put plainly: Cyclin Dependent Kinase 4 (cdk-4) Assay, 32P incorporation, filter plate. In kind it is biochemical. Particulars: retinoblastoma substrate, 25 μM ATP, 25° C., 15 minutes; read-out: Inhibition of Cdks: IC50 Cdk4D. The method, then:
Cyclin Dependent Kinase 4 (cdk-4) Assay
Enzyme assays for IC50 determinations and kinetic evaluation are performed in 96-well filter plates (Millipore MADVN6550). The total volume is 0.1 mL containing a final concentration of 20 mM TRIS (tris[hydroxymethyl]aminomethane), at pH 7.4, 50 mM NaCl, 1 mM dithiothreitol, 10 mM MgCl2, 25 μM ATP containing 0.25 μCi of [^32P]ATP, 20 ng of cdk4, 1 μg of retinoblastoma, and appropriate dilutions of a compound of the present invention. All components except the ATP are added to the wells, and the plate is placed on a plate mixer for 2 minutes. The reaction is started by adding [^32P]ATP, and the plate is incubated at 25° C. for 15 minutes. The reaction is terminated by addition of 0.1 mL of 20% trichloroacetic acid (TCA). The plate is kept at 4° C. for at least 1 hour to allow the substrate to precipitate. The wells are then washed 5 times with 0.2 mL of 10% TCA and ^32P incorporation is determined with a beta plate counter (Wallac Inc., Gaithersburg, Md.).

The target of series [3] is cdk1/cyclinB (Homo sapiens, UniProt P06493). Put plainly: Cyclin dependent kinase 1 assay (cdk1/cyclinB), 32P incorporation, filter plate. The series is classed as biochemical. To be noted: retinoblastoma substrate, 12 mM ATP, 25° C., 15 minutes; read-out: Inhibition of Cdks: IC50 Cdk1/B. The method, then: as §1, §2
Chain of cdk1/cyclinB (P06493 whole entry, species assumed): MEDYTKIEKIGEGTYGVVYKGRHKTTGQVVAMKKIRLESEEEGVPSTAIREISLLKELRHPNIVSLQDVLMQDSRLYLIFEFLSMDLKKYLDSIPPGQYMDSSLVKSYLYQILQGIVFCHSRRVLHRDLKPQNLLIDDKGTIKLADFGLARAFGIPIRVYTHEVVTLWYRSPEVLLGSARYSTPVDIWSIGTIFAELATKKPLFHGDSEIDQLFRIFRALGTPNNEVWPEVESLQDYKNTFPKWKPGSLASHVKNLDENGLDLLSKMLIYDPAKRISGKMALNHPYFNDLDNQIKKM
Chain of cdk1/cyclinB (P14635 whole entry partner, species assumed): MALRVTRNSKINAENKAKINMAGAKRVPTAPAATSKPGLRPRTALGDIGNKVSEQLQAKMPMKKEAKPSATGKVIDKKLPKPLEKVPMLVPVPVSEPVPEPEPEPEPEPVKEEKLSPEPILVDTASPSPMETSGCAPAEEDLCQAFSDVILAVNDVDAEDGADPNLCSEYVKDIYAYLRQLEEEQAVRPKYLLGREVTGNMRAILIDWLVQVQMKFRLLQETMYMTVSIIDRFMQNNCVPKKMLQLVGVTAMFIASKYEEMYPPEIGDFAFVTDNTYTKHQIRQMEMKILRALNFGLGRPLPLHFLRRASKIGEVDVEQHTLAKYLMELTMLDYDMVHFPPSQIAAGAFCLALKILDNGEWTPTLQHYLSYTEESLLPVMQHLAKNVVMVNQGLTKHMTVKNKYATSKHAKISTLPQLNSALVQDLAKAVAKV
Series [4] concerns the target cdk2/cyclinA (Homo sapiens, UniProt P24941). Put plainly: Cyclin dependent kinase 2 assay (cdk2/cyclinA), 32P incorporation, filter plate. The series is classed as biochemical. To be noted: retinoblastoma substrate, 12 mM ATP, 25° C., 15 minutes; read-out: Inhibition of Cdks: IC50 Cdk2/A. The method, then:
as §1, §2

Chain of cdk4/cyclinD (P11802 whole entry, species assumed): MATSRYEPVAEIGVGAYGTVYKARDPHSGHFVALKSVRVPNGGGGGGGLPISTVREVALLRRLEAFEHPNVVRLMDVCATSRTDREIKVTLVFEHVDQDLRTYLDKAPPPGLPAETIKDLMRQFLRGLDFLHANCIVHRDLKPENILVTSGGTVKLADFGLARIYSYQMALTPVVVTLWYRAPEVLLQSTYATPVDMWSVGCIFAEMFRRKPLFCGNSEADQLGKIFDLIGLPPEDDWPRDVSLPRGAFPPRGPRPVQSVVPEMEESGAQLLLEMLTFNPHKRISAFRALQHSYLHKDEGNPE
Chain of cdk4/cyclinD (P24385 whole entry partner, species assumed): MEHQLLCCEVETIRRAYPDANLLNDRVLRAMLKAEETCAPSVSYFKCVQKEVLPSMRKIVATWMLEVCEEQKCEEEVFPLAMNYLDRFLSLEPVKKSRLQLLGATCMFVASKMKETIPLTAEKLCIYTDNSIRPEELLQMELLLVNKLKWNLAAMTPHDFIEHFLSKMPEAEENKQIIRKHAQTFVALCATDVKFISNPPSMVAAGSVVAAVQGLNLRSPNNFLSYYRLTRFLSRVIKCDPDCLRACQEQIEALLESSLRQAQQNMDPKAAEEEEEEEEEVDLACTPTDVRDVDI

Usually melting point stands for the temperature, or range, at which the solid turns liquid. For the molecule `CC(C)(C)NC(=O)Nc1ccc2cnc(Nc3ccc(N4CCNCC4)cc3)nc2n1` (as salt: salt) [Compound 1, 1-tert-Butyl-3-[2-(4-piperazin-1-yl-phenylamino)-pyrido[2,3-d]pyrimidin-7-yl]-urea], the melting point is 215 °C (dec.).
Consider `O=C(Nc1ccc2cnc(Nc3ccc(N4CCNCC4)cc3)nc2n1)NC1CCCCC1` (as salt: salt) [Compound 9, 1-Cyclohexyl-3-[2-(4-piperazin-1-yl-phenylamino)-pyrido[2,3-d]pyrimidin-7-yl]-urea], for which the melting point was 200 °C (dec.).
As to `CC(C)NC(=O)Nc1ccc2cnc(Nc3ccc(N4CCNCC4)cc3)nc2n1` [Compound 48, 1-Isopropyl-3-[2-(4-piperazin-1-yl-phenylamino)-pyrido[2,3-d]pyrimidin-7-yl]-urea], the IC50 in series [1] was 98 nM; in series [2], 18 nM; in series [3] it was 257 nM; in series [4], 113 nM.
On to `O=C(Nc1ccc2cnc(Nc3ccc(N4CCNCC4)cc3)nc2n1)NC1CCCC1` [Compound 51, 1-Cyclopentyl-3-[2-(4-piperazin-1-yl-phenylamino)-pyrido[2,3-d]pyrimidin-7-yl]-urea], for which the IC50 in series [1] was 30 nM; in series [2], 4 nM; in series [3], 53 nM; in series [4], 24 nM.
The corresponding values for `CC(C)(C)NC(=O)Nc1nc2nc(Nc3ccc(N4CCNCC4)cc3)ncc2cc1Br` [Compound 91, 1-[6-Bromo-2-(4-piperazin-1-yl-phenylamino)-pyrido[2,3-d]pyrimidin-7-yl]-3-tert-butyl-urea] are more than 5000 nM, 70 nM, more than 5000 nM and more than 5000 nM.
Regarding `CNC(=O)Nc1nc2nc(Nc3ccc(N4CCNCC4)cc3)ncc2cc1Br` [Compound 93, 1-[6-Bromo-2-(4-piperazin-1-yl-phenylamino)-pyrido[2,3-d]pyrimidin-7-yl]-3-methyl-urea], the IC50 in series [1], in series [2], in series [3] and in series [4] was more than 5000 nM throughout.
Consider `C[C@@H]1CN(c2ccc(Nc3ncc4cc(Br)c(NC(=O)NC(C)(C)C)nc4n3)cc2)C[C@H](C)N1` [Compound 94, 1-{6-Bromo-2-[4-(cis-3,5-dimethyl-piperazin-1-yl)-phenylamino]-pyrido[2,3-d]pyrimidin-7-yl}-3-tert-butyl-urea], for which the values for the IC50 in series [1] and in series [2] were more than 5000 nM and 101 nM, respectively.
Take `C[C@@H]1CN(c2ccc(Nc3ncc4cc(Br)c(NC(=O)NC5CCCCC5)nc4n3)cc2)C[C@H](C)N1` [Compound 95, 1-{6-Bromo-2-[4-(cis-3,5-dimethyl-piperazin-1-yl)-phenylamino]-pyrido[2,3-d]pyrimidin-7-yl}-3-cyclohexyl-urea]: the figures for the IC50 in series [1] and in series [2] were more than 5000 nM and 310 nM, respectively.
In the case of `CC1(C)CN(c2ccc(Nc3ncc4cc(F)c(NC(=O)NC5CCCCC5)nc4n3)cc2)CCN1` [Compound 100, 1-Cyclohexyl-3-{2-[4-(3,3-dimethyl-piperazin-1-yl)-phenylamino]-6-fluoro-pyrido[2,3-d]pyrimidin-7-yl}-urea], the IC50 in series [1] worked out at 415 nM; in series [2] it was 35 nM; in series [3], 265 nM; in series [4], 153 nM.
On the same counts, the results for `C[C@@H]1CN(c2ccc(Nc3ncc4cc(F)c(NC(=O)NC(C)(C)C)nc4n3)cc2)C[C@H](C)N1` [Compound 102, 1-tert-Butyl-3-{2-[4(cis-3,5-dimethyl-piperazin-1-yl)-phenylamino]-6-fluoro-pyrido[2,3-d]pyrimidin-7-yl}-urea] are 4500 nM, 165 nM, 3130 nM and 3590 nM.
With `CCN(C(=O)NC1CCCCC1)c1ccc2cnc(Nc3ccc(N4CCNCC4)cc3)nc2n1` [Compound 107, 3-Cyclohexyl-1-ethyl-1-[2-(4-piperazin-1-yl-phenylamino)-pyrido[2,3-d]pyrimidin-7-yl]-urea], the IC50 in series [1] was determined as 1650 nM; in series [2], 19 nM; in series [3] it was 1730 nM; in series [4], 1950 nM.
The corresponding values for `CCN(C(=O)NC(C)(C)C)c1ccc2cnc(Nc3ccc(N4C[C@@H](C)N[C@@H](C)C4)cc3)nc2n1` [Compound 108, 3-tert-Butyl-1-{2-[4(cis-3,5-dimethyl-piperazin-1-yl)-phenylamino]-pyrido[2,3-d]pyrimidin-7-yl}-1-ethyl-urea] are 3050 nM, 67 nM, 2420 nM and 2030 nM.
The corresponding values for `CCOC(=O)c1cc2cnc(Nc3ccc(N4CCNCC4)cc3)nc2nc1NC(=O)NC(C)(C)C` [Compound 113, 7-(3-tert-Butyl-ureido)-2-(4-piperazin-1-yl-phenylamino)-pyrido[2,3-d]pyrimidine-6-carboxylic acid ethyl ester] are more than 5000 nM, 3000 nM, more than 5000 nM and more than 5000 nM.
On to `CC1(C)CN(c2ccc(Nc3ncc4ccc(NC(=O)NC5CCCCC5)nc4n3)cc2)CCN1` [Compound 115, 1-Cyclohexyl-3-{2-[4-(3,3-dimethyl-piperazin-1-yl)-phenylamino]-pyrido[2,3-d]pyrimidin-7-yl}-urea], for which the IC50 was 51 nM in series [1], 7 nM in series [2], 94 nM in series [3] and 22 nM in series [4].
On the same counts, the results for `Cc1cc2cnc(Nc3ccc(N4C[C@@H](C)N[C@@H](C)C4)cc3)nc2nc1NC(=O)NC1CCCCC1` [Compound 116, 1-Cyclohexyl-3-{2-[4-(cis-3,5-dimethyl-piperazin-1-yl)-phenylamino]-6-methyl-pyrido[2,3-d]pyrimidin-7-yl}-urea] are 3750 nM, 313 nM, more than 5000 nM and more than 5000 nM.
On the same counts, the results for `Cc1cc2cnc(Nc3ccc(N4CCNCC4)cc3)nc2nc1NC(=O)NC(C)(C)C` [Compound 118] are 3800 nM, 79 nM, more than 5000 nM and more than 5000 nM.
On the same counts, the results for `Cc1cc2cnc(Nc3ccc(N4C[C@@H](C)N[C@@H](C)C4)cc3)nc2nc1NC(=O)NC(C)C` [Compound 119, 1-{2-[4-(cis-3,5-Dimethyl-piperazin-1-yl)-phenylamino]-6-methyl-pyrido[2,3-d]pyrimidin-7-yl}-3-isopropyl-urea] are more than 5000 nM, 1600 nM, more than 5000 nM and more than 5000 nM.
In the case of `Cc1cc2cnc(Nc3ccc(N4C[C@@H](C)N[C@@H](C)C4)cc3)nc2nc1NC(=O)NC1CC1` [Compound 120, 1-Cyclopropyl-3-{2-[4-(cis-3,5-dimethyl-piperazin-1-yl)-phenylamino]-6-methyl-pyrido[2,3-d]pyrimidin-7-yl}-urea], the IC50 is more than 5000 nM in series [1], 1900 nM in series [2], more than 5000 nM in series [3] and more than 5000 nM in series [4].
Take `CCc1cc2cnc(Nc3ccc(N4C[C@@H](C)N[C@@H](C)C4)cc3)nc2nc1NC(=O)NC(C)(C)C` [Compound 121, 1-tert-Butyl-3-{2-[4-(cis-3,5-dimethyl-piperazin-1-yl)-phenylamino]-6-ethyl-pyrido[2,3-d]pyrimidin-7-yl}-urea]: the IC50 was more than 5000 nM in series [1], 92 nM in series [2], more than 5000 nM in series [3] and more than 5000 nM in series [4].
